Drawing on ChEMBL document CHEMBL3991601, “The target landscape of clinical kinase drugs” (Science, 2017), this text covers Kd for nine compounds.

Active and inactive are the calls of the source. Where only a bound is given, the exact number is not on record here.

Assay [1] deals with T1, Receptor-type tyrosine-protein kinase FLT3 (Homo sapiens, UniProt P36888).
T1 sequence (P36888 whole entry): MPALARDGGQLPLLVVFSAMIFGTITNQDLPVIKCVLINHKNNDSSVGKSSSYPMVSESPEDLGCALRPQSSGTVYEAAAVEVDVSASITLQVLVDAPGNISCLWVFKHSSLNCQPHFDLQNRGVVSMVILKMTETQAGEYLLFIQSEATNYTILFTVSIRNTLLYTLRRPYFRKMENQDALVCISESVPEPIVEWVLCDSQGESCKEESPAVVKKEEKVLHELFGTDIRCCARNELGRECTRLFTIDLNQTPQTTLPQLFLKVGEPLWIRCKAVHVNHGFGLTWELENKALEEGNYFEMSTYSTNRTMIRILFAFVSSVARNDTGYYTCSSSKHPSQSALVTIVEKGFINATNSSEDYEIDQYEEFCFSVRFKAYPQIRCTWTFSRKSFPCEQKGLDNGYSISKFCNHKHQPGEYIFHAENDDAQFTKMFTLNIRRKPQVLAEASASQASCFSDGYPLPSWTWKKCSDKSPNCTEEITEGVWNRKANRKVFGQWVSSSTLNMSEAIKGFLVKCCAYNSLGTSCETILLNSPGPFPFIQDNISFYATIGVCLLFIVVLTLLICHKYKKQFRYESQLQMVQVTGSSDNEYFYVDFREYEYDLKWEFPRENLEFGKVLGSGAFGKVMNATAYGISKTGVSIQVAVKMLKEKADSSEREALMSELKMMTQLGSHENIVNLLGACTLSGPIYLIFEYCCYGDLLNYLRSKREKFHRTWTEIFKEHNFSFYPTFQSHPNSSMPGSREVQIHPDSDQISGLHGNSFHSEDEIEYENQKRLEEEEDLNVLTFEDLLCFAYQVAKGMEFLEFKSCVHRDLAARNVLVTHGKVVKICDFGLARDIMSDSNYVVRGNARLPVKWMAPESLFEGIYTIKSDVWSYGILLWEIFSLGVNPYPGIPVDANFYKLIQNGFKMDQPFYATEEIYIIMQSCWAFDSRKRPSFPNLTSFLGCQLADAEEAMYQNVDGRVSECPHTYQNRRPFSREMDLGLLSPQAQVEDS

The target of assay [2] is Glycogen synthase kinase-3 beta (Homo sapiens, UniProt P49841).
In assay [3] the target is Mitogen-activated protein kinase 14 (Homo sapiens, UniProt Q16539).
The target in assay [4] is MAP kinase-activated protein kinase 3 (Homo sapiens, UniProt Q16644).
Assay [5] addresses High affinity nerve growth factor receptor (Homo sapiens, UniProt P04629).
Assay [6] has as its target PAS domain-containing serine/threonine-protein kinase (Homo sapiens, UniProt Q96RG2).
Assay [7] addresses Phosphatidylethanolamine-binding protein 1 (Homo sapiens, UniProt P30086).
Assay [8] addresses Serine/threonine-protein kinase pim-2 (Homo sapiens, UniProt Q9P1W9).
In assay [9] the target is Serine/threonine-protein kinase N3 (Homo sapiens, UniProt Q6P5Z2).
In a further assay the target is Focal adhesion kinase 1 (Homo sapiens, UniProt Q05397).
Assay [10] concerns the target Dual specificity testis-specific protein kinase 1 (Homo sapiens, UniProt Q15569).
Assay [11] addresses T2, Thyroid hormone receptor-associated protein 3 (Homo sapiens, UniProt Q9Y2W1).
T2 sequence (Q9Y2W1 whole entry): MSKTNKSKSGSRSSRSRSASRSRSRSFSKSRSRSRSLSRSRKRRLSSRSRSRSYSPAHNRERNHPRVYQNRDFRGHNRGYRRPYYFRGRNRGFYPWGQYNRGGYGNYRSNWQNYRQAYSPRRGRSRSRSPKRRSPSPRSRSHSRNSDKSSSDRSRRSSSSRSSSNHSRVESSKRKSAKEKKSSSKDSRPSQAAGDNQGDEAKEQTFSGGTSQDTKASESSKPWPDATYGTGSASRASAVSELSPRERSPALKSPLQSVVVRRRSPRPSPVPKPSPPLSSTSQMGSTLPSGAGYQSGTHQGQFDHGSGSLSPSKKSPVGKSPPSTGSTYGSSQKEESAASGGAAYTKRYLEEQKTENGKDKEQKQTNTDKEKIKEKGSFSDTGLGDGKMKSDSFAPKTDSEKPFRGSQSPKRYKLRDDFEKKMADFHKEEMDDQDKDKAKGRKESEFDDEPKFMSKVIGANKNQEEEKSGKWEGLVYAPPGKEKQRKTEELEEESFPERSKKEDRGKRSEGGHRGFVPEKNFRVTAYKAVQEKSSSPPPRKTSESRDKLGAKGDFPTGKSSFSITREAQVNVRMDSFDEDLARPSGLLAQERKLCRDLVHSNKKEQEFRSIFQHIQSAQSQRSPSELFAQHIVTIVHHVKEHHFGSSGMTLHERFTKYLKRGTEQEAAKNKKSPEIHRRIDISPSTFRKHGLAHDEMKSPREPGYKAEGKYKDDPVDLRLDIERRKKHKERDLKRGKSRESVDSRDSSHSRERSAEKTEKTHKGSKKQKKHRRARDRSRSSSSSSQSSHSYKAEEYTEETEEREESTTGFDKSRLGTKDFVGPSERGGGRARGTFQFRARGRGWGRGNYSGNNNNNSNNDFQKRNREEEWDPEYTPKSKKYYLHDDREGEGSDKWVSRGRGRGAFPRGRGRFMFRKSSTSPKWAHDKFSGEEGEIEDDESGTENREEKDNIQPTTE

For assay [12], the target named is DNA topoisomerase 2-alpha (Homo sapiens, UniProt P11388).
Assay [13] concerns the target Dual specificity protein kinase CLK3 (Homo sapiens, UniProt P49761). It counts as subcellular, K-562, COLO 205, SK-N-BE(2) and MV-4-11, Cell lysate. The conditions noted are these: read-out: Kd apparent.
Assay [14] has as its target Epidermal growth factor receptor (Homo sapiens, UniProt P00533).
Assay [15] has as its target Membrane-associated progesterone receptor component 1 (Homo sapiens, UniProt O00264).
Assay [16] deals with Proto-oncogene tyrosine-protein kinase receptor Ret (Homo sapiens, UniProt P07949).
The target in assay [17] is Cell division cycle 7-related protein kinase (Homo sapiens, UniProt O00311).
Also: in the data inactive means no Kd found up to 30 µM.

Chain of Dual specificity protein kinase CLK3 (P49761 whole entry): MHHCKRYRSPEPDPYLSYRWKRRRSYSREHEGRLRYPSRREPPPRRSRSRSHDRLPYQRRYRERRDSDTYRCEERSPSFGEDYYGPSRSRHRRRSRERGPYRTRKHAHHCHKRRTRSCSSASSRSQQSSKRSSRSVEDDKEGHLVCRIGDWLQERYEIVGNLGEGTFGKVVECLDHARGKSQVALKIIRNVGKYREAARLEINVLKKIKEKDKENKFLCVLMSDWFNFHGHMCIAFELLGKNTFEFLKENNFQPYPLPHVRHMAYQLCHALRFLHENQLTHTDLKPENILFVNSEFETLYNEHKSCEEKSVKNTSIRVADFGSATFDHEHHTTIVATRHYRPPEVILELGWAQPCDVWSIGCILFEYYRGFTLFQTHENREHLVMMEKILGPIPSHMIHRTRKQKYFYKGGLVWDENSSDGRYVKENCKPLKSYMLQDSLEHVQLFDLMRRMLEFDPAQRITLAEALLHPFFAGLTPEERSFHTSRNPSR
Chain of PAS domain-containing serine/threonine-protein kinase (Q96RG2 whole entry, the tested form may be a part): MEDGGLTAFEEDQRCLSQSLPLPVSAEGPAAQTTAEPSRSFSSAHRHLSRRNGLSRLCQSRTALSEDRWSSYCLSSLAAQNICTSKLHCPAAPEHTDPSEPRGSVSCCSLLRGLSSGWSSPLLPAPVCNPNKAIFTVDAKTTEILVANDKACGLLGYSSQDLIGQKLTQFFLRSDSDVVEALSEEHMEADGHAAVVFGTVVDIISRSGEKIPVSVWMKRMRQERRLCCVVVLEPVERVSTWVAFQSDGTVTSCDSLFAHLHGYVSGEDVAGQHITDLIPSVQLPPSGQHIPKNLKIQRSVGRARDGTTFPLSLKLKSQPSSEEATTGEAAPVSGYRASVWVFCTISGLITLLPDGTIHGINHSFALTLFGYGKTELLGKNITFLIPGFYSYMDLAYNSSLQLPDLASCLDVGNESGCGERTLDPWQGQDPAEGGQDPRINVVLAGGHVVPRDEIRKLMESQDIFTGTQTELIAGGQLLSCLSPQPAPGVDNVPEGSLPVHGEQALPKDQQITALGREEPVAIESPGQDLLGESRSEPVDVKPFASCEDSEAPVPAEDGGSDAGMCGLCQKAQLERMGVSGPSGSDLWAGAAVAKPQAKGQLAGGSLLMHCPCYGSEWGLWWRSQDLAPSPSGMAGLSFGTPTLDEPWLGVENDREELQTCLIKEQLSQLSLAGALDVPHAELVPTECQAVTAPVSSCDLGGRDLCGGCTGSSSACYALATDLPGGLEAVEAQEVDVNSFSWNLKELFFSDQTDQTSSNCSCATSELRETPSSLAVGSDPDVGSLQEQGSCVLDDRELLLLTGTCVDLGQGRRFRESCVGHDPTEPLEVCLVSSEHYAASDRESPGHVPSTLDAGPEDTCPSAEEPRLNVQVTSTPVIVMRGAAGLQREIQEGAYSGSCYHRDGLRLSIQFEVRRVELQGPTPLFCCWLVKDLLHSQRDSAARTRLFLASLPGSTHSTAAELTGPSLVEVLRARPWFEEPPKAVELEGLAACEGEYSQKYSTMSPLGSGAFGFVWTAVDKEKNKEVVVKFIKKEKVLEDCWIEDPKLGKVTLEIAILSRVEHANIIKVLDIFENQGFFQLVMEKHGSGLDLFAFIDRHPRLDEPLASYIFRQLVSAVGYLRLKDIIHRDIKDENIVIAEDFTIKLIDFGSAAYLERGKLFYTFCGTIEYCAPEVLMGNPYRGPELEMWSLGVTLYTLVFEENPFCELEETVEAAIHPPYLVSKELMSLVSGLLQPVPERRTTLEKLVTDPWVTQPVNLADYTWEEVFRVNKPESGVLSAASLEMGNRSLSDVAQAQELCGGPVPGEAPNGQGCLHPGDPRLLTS
Chain of Epidermal growth factor receptor (P00533 whole entry): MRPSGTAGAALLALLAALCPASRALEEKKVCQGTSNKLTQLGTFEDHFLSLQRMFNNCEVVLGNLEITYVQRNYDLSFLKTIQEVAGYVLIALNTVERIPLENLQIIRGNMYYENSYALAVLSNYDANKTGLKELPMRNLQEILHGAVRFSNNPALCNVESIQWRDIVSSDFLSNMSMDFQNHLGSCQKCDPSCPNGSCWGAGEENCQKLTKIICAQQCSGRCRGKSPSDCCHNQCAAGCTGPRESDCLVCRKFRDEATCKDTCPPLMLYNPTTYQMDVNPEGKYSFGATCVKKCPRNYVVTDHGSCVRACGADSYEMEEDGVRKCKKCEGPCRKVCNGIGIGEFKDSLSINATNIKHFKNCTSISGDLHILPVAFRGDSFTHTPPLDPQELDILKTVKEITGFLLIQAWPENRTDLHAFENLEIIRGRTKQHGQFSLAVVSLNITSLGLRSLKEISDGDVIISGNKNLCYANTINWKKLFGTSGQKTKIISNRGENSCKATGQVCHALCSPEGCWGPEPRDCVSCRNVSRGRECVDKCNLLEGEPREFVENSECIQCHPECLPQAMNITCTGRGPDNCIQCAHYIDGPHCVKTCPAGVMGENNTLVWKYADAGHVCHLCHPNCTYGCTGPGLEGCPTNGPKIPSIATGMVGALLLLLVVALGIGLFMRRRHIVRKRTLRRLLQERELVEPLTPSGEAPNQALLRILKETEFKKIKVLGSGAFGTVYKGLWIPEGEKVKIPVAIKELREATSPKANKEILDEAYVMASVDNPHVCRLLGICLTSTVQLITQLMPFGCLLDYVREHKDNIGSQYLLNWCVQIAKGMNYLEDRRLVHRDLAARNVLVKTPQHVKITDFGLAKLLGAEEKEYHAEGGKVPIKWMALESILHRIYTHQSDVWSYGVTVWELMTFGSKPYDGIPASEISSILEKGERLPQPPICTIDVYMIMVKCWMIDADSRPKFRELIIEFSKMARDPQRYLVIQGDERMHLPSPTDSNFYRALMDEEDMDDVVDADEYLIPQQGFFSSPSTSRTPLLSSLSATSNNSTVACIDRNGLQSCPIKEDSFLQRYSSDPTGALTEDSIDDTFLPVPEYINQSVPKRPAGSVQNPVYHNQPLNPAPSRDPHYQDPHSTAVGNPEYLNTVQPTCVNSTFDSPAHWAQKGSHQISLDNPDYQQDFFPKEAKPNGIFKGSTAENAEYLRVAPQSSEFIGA
Chain of Focal adhesion kinase 1 (Q05397 whole entry): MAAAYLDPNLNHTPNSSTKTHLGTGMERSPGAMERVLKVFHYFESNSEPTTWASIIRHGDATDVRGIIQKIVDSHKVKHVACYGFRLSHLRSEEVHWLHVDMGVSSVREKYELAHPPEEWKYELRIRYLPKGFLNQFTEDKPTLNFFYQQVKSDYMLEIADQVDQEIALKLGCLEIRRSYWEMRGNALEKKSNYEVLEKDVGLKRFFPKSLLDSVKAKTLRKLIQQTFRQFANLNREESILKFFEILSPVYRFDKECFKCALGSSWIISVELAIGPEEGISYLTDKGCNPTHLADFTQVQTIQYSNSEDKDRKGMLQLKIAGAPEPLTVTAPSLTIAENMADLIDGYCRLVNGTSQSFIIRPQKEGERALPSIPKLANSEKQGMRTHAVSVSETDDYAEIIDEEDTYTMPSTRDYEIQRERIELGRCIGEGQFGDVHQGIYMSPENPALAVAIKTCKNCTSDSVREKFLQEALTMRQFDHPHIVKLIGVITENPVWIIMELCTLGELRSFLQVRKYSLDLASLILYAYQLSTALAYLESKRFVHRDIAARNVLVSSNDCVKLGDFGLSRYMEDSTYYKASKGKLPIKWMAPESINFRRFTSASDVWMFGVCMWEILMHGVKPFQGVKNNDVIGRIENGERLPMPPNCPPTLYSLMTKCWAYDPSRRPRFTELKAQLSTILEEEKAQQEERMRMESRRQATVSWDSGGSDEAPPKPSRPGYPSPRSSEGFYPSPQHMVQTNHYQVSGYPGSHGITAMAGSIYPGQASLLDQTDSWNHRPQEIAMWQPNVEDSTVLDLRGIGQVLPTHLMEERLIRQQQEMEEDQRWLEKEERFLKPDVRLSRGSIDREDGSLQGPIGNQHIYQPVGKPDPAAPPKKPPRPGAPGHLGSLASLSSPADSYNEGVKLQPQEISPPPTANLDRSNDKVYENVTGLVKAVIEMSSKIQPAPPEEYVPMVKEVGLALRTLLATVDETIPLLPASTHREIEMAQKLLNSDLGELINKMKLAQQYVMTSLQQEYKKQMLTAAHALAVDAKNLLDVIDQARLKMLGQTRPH
Chain of Glycogen synthase kinase-3 beta (P49841 whole entry): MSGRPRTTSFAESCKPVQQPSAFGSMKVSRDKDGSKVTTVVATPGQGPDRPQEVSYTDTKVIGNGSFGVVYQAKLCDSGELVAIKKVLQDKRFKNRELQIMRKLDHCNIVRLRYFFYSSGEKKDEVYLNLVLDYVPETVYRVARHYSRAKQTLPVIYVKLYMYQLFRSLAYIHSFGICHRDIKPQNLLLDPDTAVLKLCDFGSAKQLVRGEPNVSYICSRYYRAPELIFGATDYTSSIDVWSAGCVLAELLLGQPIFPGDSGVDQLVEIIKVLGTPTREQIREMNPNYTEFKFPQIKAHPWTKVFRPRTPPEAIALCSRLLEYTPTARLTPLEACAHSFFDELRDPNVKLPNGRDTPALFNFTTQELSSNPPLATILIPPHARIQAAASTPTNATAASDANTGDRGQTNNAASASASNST
Chain of Mitogen-activated protein kinase 14 (Q16539 whole entry): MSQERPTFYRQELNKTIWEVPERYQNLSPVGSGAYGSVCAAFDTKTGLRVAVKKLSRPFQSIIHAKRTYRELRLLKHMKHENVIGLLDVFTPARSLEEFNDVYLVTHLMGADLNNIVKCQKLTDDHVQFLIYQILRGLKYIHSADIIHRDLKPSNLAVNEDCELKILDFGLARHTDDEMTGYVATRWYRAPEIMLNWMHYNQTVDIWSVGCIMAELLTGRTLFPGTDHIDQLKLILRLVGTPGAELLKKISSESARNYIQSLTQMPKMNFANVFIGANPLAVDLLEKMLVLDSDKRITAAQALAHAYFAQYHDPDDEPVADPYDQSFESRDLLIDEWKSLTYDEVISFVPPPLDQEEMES
Chain of Phosphatidylethanolamine-binding protein 1 (P30086 whole entry): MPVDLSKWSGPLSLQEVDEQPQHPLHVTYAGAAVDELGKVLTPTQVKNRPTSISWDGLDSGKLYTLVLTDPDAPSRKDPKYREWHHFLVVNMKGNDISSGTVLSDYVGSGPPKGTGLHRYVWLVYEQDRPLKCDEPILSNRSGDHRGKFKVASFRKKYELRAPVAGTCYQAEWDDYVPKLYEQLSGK

Regarding `O[C@H]1CC[C@H](Nc2ncc3nc(Nc4c(F)cc(F)cc4F)n([C@H]4CCOC4)c3n2)CC1` [TANZISERTIB], the Kd is > 30 µM (inactive) in assay [1]; > 30 µM (inactive) in assay [2]; 0.729 µM (active) in assay [3]; > 30 µM (inactive) in assay [4]; > 30 µM (inactive) in [5]; > 30 µM (inactive) in [6]. For the same compound, the Kd (in assay [7]; in assay [8]; in [9]; at Focal adhesion kinase 1; in [10]; in [11]) was > 30 µM (inactive) in each case. Moreover, in assay [12], the Kd was > 30 µM (inactive).

Turning to `O=C(O)c1ccc2c(c1)nc(Nc1cccc(Cl)c1)c1ccncc12` [SILMITASERTIB], the Kd in assay [13] is 0.01 µM (active); in [14] it was > 30 µM (inactive); in assay [3], > 30 µM (inactive); in assay [4], 0.026 µM (active); in [5], > 30 µM (inactive); in assay [15] it was > 30 µM (inactive). The Kd (in [9]; on Focal adhesion kinase 1; in assay [16]; in [10]; in assay [11]) was > 30 µM (inactive) each time.

For the compound `c1cc(OCCN2CCCCC2)cc(-c2n[nH]c3ccc(-c4nc[nH]n4)cc23)c1` [CC-401], the Kd in assay [14], in assay [1], in [3], in [4], in assay [5] and in assay [7] was > 30 µM (inactive) throughout. The Kd (in assay [15]; in assay [8]; in assay [9]; on Focal adhesion kinase 1; in [16]; in assay [10]) was > 30 µM (inactive) in each case. The Kd in assay [11] and in assay [12] was > 30 µM (inactive) throughout.

As for `C[C@@H]1COC(Nc2ccc3ncnc(Nc4ccc(OCc5nccs5)c(Cl)c4)c3c2)=N1` [VARLITINIB], the Kd in [17] was > 30 µM (inactive); in [14], 0.005 µM (active); in assay [1] it was > 30 µM (inactive); in assay [2] it was > 30 µM (inactive); in assay [3] it was > 30 µM (inactive); in assay [4], > 30 µM (inactive). Besides, the Kd (in assay [5]; in assay [6]; in [15]; in [8]; in assay [9]; at Focal adhesion kinase 1) was > 30 µM (inactive) each time. Also, the Kd in [16], in assay [10], in assay [11] and in [12] was > 30 µM (inactive) each time.

For `C=CC(=O)Nc1cc(Nc2nccc(-c3cn(C)c4ccccc34)n2)c(OC)cc1N(C)CCN(C)C` [OSIMERTINIB], the Kd in [13], in [1], in [2], in assay [3], in assay [4] and in [5] was > 30 µM (inactive) throughout. Further, the Kd (in assay [7]; in [15]; in assay [9]; at Focal adhesion kinase 1; in [16]; in assay [11]) was > 30 µM (inactive) throughout. Further, the Kd in assay [12] is > 30 µM (inactive).

For `CCN(CCCOc1ccc2c(Nc3cc(CC(=O)Nc4cccc(F)c4)n[nH]3)ncnc2c1)CCOP(=O)(O)O` [BARASERTIB], the Kd in [13], in assay [4], in assay [7], in assay [15], in [10] and in assay [11] was > 30 µM (inactive) in each case. In addition, in assay [12], the Kd was > 30 µM (inactive).

For the compound `FC(F)(F)c1ccc(CNc2ccc(Cc3c[nH]c4ncc(Cl)cc34)cn2)cn1` [PEXIDARTINIB], the Kd in assay [17], in [14], in assay [2], in [3], in assay [4] and in assay [5] was > 30 µM (inactive) each time. Also, the Kd (in [6]; in assay [15]; in assay [8]; on Focal adhesion kinase 1; in assay [16]; in assay [10]) was > 30 µM (inactive) in each case. In addition, the Kd in [12] was > 30 µM (inactive).

As for `Cc1cc(-c2cc(OC(=O)c3ccccc3)ccc2Cl)cc2nnc(Nc3ccc(OCCN4CCCC4)cc3)nc12` [TG100-801], the Kd in [14], in assay [1], in assay [2], in assay [3], in assay [4] and in [5] was > 30 µM (inactive) in each case. The Kd in [6] is > 30 µM (inactive); in assay [8], > 30 µM (inactive); in [9] it was > 30 µM (inactive); at Focal adhesion kinase 1 it was > 30 µM (inactive); in assay [16], 1.03 µM (active); in assay [10], > 30 µM (inactive). Further, the Kd in [11] was > 30 µM (inactive).

On to `COc1ccc2c(OCc3nnc4ccc(-c5ccccc5)nn34)ccnc2c1` [AMG-208], for which the Kd in assay [13], in assay [14], in assay [1], in assay [2], in [3] and in assay [4] was > 30 µM (inactive) throughout. Also, the Kd (in assay [7]; in assay [15]; in assay [9]; on Focal adhesion kinase 1; in assay [16]; in [10]) was > 30 µM (inactive) in each case. Moreover, the Kd in [11] and in assay [12] was > 30 µM (inactive) each time.
